Species on record: Rattus norvegicus
Assay: Open TG-GATES - Regimen: Daily Repeat
Format: toxicity, organism-based, Sprague-Dawley
Set-up: regimen Daily Repeat, gender Male, age 6 weeks
Conditions: in vivo, po, route gavage; for TP / gamma-GTP / ALP / ALT / AST / BUN / CRE / DBIL / GLC / IP / K / LDH / Na / PL / RALB / TBIL / TC / TG: tissue Plasma; for APTT / Bas / Eos / Fbg / Hb / Ht / Lym / MCH / MCHC / MCV / Mono / Neu / PT / Plat / RBC / Ret / WBC: tissue Blood; for KIDNEY_L / KIDNEY_R / KIDNEY_TOTAL: tissue Kidney; for LIVER: tissue Liver
[1] = 45 mg/kg, […], dose level Low, time 28 day
[2] = 150 mg/kg, 72 h, dose level Middle, time 3 day
[3] = 150 mg/kg, […], dose level Middle, time 7 day
[4] = 150 mg/kg, […], dose level Middle, time 14 day
[5] = 150 mg/kg, […], dose level Middle, time 28 day

## CC(CCc1ccccc1)NCC(O)c1ccc(O)c(C(N)=O)c1 (centres undefined) [LABETALOL]
[1]
  TP: 6.4 g/dL
  gamma-GTP: 1 IU/L
[2]
  TERMINAL_BW: 253.6 g
  APTT: 16.1 s
  Bas: 0.2%
  Eos: 0.8%
  Fbg: 278 mg/dL
  Hb: 13.8 g/dL
  Ht: 40.7%
  Lym: 75%
  MCH: 21.7 pg
  MCHC: 33.9%
  MCV: 64 fL
  Mono: 2.6%
  Neu: 21.2%
  PT: 12.9 s
  Plat: 117.8 x10_4/uL
  RBC: 636.6 x10_4/ul
  Ret: 7.2%
  WBC: 104.5 x10_2/uL
  KIDNEY_L: 1 g
  KIDNEY_R: 1 g
  KIDNEY_TOTAL: 2 g
  LIVER: 11.7 g
  ALP: 2122.4 IU/L
  ALT: 47 IU/L
  AST: 76.8 IU/L
  BUN: 16.6 mg/dL
  CRE: 0.2 mg/dL
  DBIL: 0.018 mg/dL
  GLC: 180 mg/dL
  IP: 7.8 mg/dL
  K: 4 meq/L
  LDH: 65.6 IU/L
  Na: 145 meq/L
  PL: 155.4 mg/dL
  RALB: 2.7 g/dL
  TBIL: 0.028 mg/dL
  TC: 84.8 mg/dL
  TG: 120.6 mg/dL
  TP: 5.9 g/dL
  gamma-GTP: 1 IU/L
[3]
  TERMINAL_BW: 288.5 g
  APTT: 17.3 s
  Bas: 0%
  Eos: 1%
  Fbg: 310.4 mg/dL
  Hb: 14.8 g/dL
  Ht: 42.8%
  Lym: 73.4%
  MCH: 21.3 pg
  MCHC: 34.5%
  MCV: 61.9 fL
  Mono: 2.6%
  Neu: 22.2%
  PT: 12.9 s
  Plat: 110.9 x10_4/uL
  RBC: 693.2 x10_4/ul
  Ret: 5.2%
  WBC: 92.4 x10_2/uL
  KIDNEY_L: 1.2 g
  KIDNEY_R: 1.2 g
  KIDNEY_TOTAL: 2.4 g
  LIVER: 12.6 g
  ALP: 1724.6 IU/L
  ALT: 51 IU/L
  AST: 76 IU/L
  BUN: 14.8 mg/dL
  CRE: 0.2 mg/dL
  DBIL: 0.02 mg/dL
  GLC: 183.2 mg/dL
  K: 3.8 meq/L
  LDH: 68.4 IU/L
  Na: 142.8 meq/L
  PL: 150.8 mg/dL
  RALB: 2.8 g/dL
  TBIL: 0.034 mg/dL
  TC: 78 mg/dL
  TG: 141.2 mg/dL
  TP: 6.1 g/dL
  gamma-GTP: 1 IU/L
[4]
  TERMINAL_BW: 339.7 g
  APTT: 17.1 s
  Bas: 0.2%
  Eos: 1.2%
  Fbg: 300.4 mg/dL
  Hb: 14.9 g/dL
  Ht: 42.9%
  Lym: 71.2%
  MCH: 20.6 pg
  MCHC: 34.6%
  MCV: 59.5 fL
  Mono: 2.2%
  Neu: 24.8%
  PT: 13.1 s
  RBC: 721.4 x10_4/ul
  Ret: 4.3%
  WBC: 99.2 x10_2/uL
  KIDNEY_L: 1.2 g
  KIDNEY_R: 1.2 g
  KIDNEY_TOTAL: 2.4 g
  LIVER: 13.3 g
  ALP: 1359.8 IU/L
  ALT: 50.6 IU/L
  AST: 74.4 IU/L
  BUN: 17.2 mg/dL
  CRE: 0.2 mg/dL
  DBIL: 0.012 mg/dL
  GLC: 174.6 mg/dL
  IP: 8.6 mg/dL
  K: 3.9 meq/L
  LDH: 58.6 IU/L
  Na: 145.4 meq/L
  PL: 148.6 mg/dL
  RALB: 2.8 g/dL
  TBIL: 0.026 mg/dL
  TC: 81.6 mg/dL
  TG: 88.8 mg/dL
  TP: 6.3 g/dL
  gamma-GTP: 1.4 IU/L
[5]
  TERMINAL_BW: 424.9 g
  APTT: 19 s
  Bas: 0.4%
  Eos: 1.4%
  Fbg: 286.4 mg/dL
  Hb: 15.6 g/dL
  Ht: 44.3%
  Lym: 71.8%
  MCH: 19.8 pg
  MCHC: 35.2%
  MCV: 56.1 fL
  Mono: 3%
  Neu: 23.2%
  PT: 13.5 s
  Plat: 96.8 x10_4/uL
  RBC: 789.8 x10_4/ul
  Ret: 2.1%
  WBC: 110.3 x10_2/uL
  KIDNEY_L: 1.4 g
  KIDNEY_R: 1.4 g
  KIDNEY_TOTAL: 2.8 g
  LIVER: 15.6 g
  ALP: 865.6 IU/L
  ALT: 60.2 IU/L
  AST: 78.2 IU/L
  BUN: 18.4 mg/dL
  CRE: 0.3 mg/dL
  DBIL: 0.026 mg/dL
  GLC: 185.6 mg/dL
  IP: 7.3 mg/dL
  K: 3.6 meq/L
  LDH: 69.4 IU/L
  Na: 143.4 meq/L
  PL: 132 mg/dL
  RALB: 2.8 g/dL
  TBIL: 0.038 mg/dL
  TC: 74 mg/dL
  TG: 113 mg/dL
  TP: 6.2 g/dL

Source: ChEMBL document CHEMBL3885861, “Open TG-GATES”
